{"source": "PubChem BioAssay (NCI)", "assay_in_all_cases": "NCI tumour cell line growth inhibition, 384-well format", "key": {"786-0 renal": {"tested_on": "786-0 renal"}, "A498 renal": {"tested_on": "A498 renal"}, "A549 NSCLC": {"tested_on": "A549 NSCLC"}, "ACHN renal": {"tested_on": "ACHN renal"}, "BT-549 breast": {"tested_on": "BT-549 breast"}, "CAKI-1 renal": {"tested_on": "CAKI-1 renal"}, "COLO 205 colon": {"tested_on": "COLO 205 colon"}, "DU-145 prostate": {"tested_on": "DU-145 prostate"}, "EKVX NSCLC": {"tested_on": "EKVX NSCLC"}, "HCC-2998 colon": {"tested_on": "HCC-2998 colon"}, "HCT-116 colon": {"tested_on": "HCT-116 colon"}, "HCT-15 colon": {"tested_on": "HCT-15 colon"}, "HL-60(TB) leukemia": {"tested_on": "HL-60(TB) leukemia"}, "HOP-62 NSCLC": {"tested_on": "HOP-62 NSCLC"}, "HS 578T breast": {"tested_on": "HS 578T breast"}, "K-562 leukemia": {"tested_on": "K-562 leukemia"}, "KM12 colon": {"tested_on": "KM12 colon"}, "M14 melanoma": {"tested_on": "M14 melanoma"}, "MALME-3M melanoma": {"tested_on": "MALME-3M melanoma"}, "MCF7 breast": {"tested_on": "MCF7 breast"}, "MDA-MB-231 breast": {"tested_on": "MDA-MB-231 breast"}, "MDA-MB-435 melanoma": {"tested_on": "MDA-MB-435 melanoma"}, "NCI-H226 lung": {"tested_on": "NCI-H226 lung"}, "NCI-H23 lung": {"tested_on": "NCI-H23 lung"}, "NCI-H522 lung": {"tested_on": "NCI-H522 lung"}, "NCI/ADR-RES ovarian": {"tested_on": "NCI/ADR-RES ovarian"}, "OVCAR-3 ovarian": {"tested_on": "OVCAR-3 ovarian"}, "OVCAR-4 ovarian": {"tested_on": "OVCAR-4 ovarian"}, "OVCAR-5 ovarian": {"tested_on": "OVCAR-5 ovarian"}, "OVCAR-8 ovarian": {"tested_on": "OVCAR-8 ovarian"}, "PC-3 prostate": {"tested_on": "PC-3 prostate"}, "RPMI-8226 leukemia": {"tested_on": "RPMI-8226 leukemia"}, "SF-295 CNS": {"tested_on": "SF-295 CNS"}, "SF-539 CNS": {"tested_on": "SF-539 CNS"}, "SK-MEL-2 melanoma": {"tested_on": "SK-MEL-2 melanoma"}, "SK-MEL-28 melanoma": {"tested_on": "SK-MEL-28 melanoma"}, "SK-MEL-5 melanoma": {"tested_on": "SK-MEL-5 melanoma"}, "SK-OV-3 ovarian": {"tested_on": "SK-OV-3 ovarian"}, "SN12C renal": {"tested_on": "SN12C renal"}, "SNB-19 CNS": {"tested_on": "SNB-19 CNS"}, "SNB-75 CNS": {"tested_on": "SNB-75 CNS"}, "SR leukemia": {"tested_on": "SR leukemia"}, "SW-620 colon": {"tested_on": "SW-620 colon"}, "TK-10 renal": {"tested_on": "TK-10 renal"}, "U251 glioblastoma": {"tested_on": "U251 glioblastoma"}, "UACC-62 melanoma": {"tested_on": "UACC-62 melanoma"}, "UO-31 renal": {"tested_on": "UO-31 renal"}}, "note": "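At the GI50, growth is halved. At the TGI there is no net growth.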"}
{"smiles": "CCCS(=O)(=O)Nc1ccc(F)c(C(=O)c2c[nH]c3ncc(-c4ccc(Cl)cc4)cc23)c1F", "values": [{"measurement": "GI50", "setting": "786-0 renal", "result": 4.03, "unit": "µM"}, {"measurement": "TGI", "setting": "786-0 renal", "result": 13.5, "unit": "µM"}, {"measurement": "GI50", "setting": "A498 renal", "result": 2.96, "unit": "µM"}, {"measurement": "TGI", "setting": "A498 renal", "result": 9.4, "unit": "µM"}, {"measurement": "GI50", "setting": "A549 NSCLC", "result": 3.99, "unit": "µM"}, {"measurement": "TGI", "setting": "A549 NSCLC", "result": 10.8, "unit": "µM"}, {"measurement": "GI50", "setting": "ACHN renal", "result": 5.39, "unit": "µM"}, {"measurement": "TGI", "setting": "ACHN renal", "result": 19.5, "unit": "µM"}, {"measurement": "GI50", "setting": "BT-549 breast", "result": 5.9, "unit": "µM"}, {"measurement": "TGI", "setting": "BT-549 breast", "result": 19.2, "unit": "µM"}, {"measurement": "GI50", "setting": "CAKI-1 renal", "result": 3.69, "unit": "µM"}, {"measurement": "TGI", "setting": "CAKI-1 renal", "result": 10.5, "unit": "µM"}, {"measurement": "GI50", "setting": "COLO 205 colon", "result": 0.0425, "unit": "µM"}, {"measurement": "TGI", "setting": "COLO 205 colon", "result": 1.18, "unit": "µM"}, {"measurement": "GI50", "setting": "DU-145 prostate", "result": 5.88, "unit": "µM"}, {"measurement": "TGI", "setting": "DU-145 prostate", "result": 18.6, "unit": "µM"}, {"measurement": "GI50", "setting": "EKVX NSCLC", "result": 7, "unit": "µM"}, {"measurement": "TGI", "setting": "EKVX NSCLC", "result": 12.7, "unit": "µM"}, {"measurement": "GI50", "setting": "HCC-2998 colon", "result": 0.593, "unit": "µM"}, {"measurement": "TGI", "setting": "HCC-2998 colon", "result": 1.96, "unit": "µM"}, {"measurement": "GI50", "setting": "HCT-116 colon", "result": 3.85, "unit": "µM"}, {"measurement": "TGI", "setting": "HCT-116 colon", "result": 11.5, "unit": "µM"}, {"measurement": "GI50", "setting": "HCT-15 colon", "result": 5.83, "unit": "µM"}, {"measurement": "TGI", "setting": "HCT-15 colon", "result": 13.5, "unit": "µM"}, {"measurement": "GI50", "setting": "HL-60(TB) leukemia", "result": 0.902, "unit": "µM"}, {"measurement": "TGI", "setting": "HL-60(TB) leukemia", "result": 5.03, "unit": "µM"}, {"measurement": "GI50", "setting": "HOP-62 NSCLC", "result": 5.12, "unit": "µM"}, {"measurement": "TGI", "setting": "HOP-62 NSCLC", "result": 14.9, "unit": "µM"}, {"measurement": "GI50", "setting": "HS 578T breast", "result": 2.52, "unit": "µM"}, {"measurement": "TGI", "setting": "HS 578T breast", "result": 6.2, "unit": "µM"}, {"measurement": "GI50", "setting": "K-562 leukemia", "result": 1.66, "unit": "µM"}, {"measurement": "TGI", "setting": "K-562 leukemia", "result": 3.43, "unit": "µM"}, {"measurement": "GI50", "setting": "KM12 colon", "result": 4.11, "unit": "µM"}, {"measurement": "TGI", "setting": "KM12 colon", "result": 13.1, "unit": "µM"}, {"measurement": "GI50", "setting": "M14 melanoma", "result": 0.0305, "unit": "µM"}, {"measurement": "TGI", "setting": "M14 melanoma", "result": 0.321, "unit": "µM"}, {"measurement": "GI50", "setting": "MALME-3M melanoma", "result": 0.0242, "unit": "µM"}, {"measurement": "TGI", "setting": "MALME-3M melanoma", "result": 0.0897, "unit": "µM"}, {"measurement": "GI50", "setting": "MCF7 breast", "result": 6.82, "unit": "µM"}, {"measurement": "TGI", "setting": "MCF7 breast", "result": 13.3, "unit": "µM"}, {"measurement": "GI50", "setting": "MDA-MB-231 breast", "result": 3.8, "unit": "µM"}, {"measurement": "TGI", "setting": "MDA-MB-231 breast", "result": 8.85, "unit": "µM"}, {"measurement": "GI50", "setting": "MDA-MB-435 melanoma", "result": 0.281, "unit": "µM"}, {"measurement": "TGI", "setting": "MDA-MB-435 melanoma", "result": 14.6, "unit": "µM"}, {"measurement": "GI50", "setting": "NCI-H226 lung", "result": 7.95, "unit": "µM"}, {"measurement": "TGI", "setting": "NCI-H226 lung", "result": 17.2, "unit": "µM"}, {"measurement": "GI50", "setting": "NCI-H23 lung", "result": 4.19, "unit": "µM"}, {"measurement": "TGI", "setting": "NCI-H23 lung", "result": 13.2, "unit": "µM"}, {"measurement": "GI50", "setting": "NCI-H522 lung", "result": 7.93, "unit": "µM"}, {"measurement": "TGI", "setting": "NCI-H522 lung", "result": 16, "unit": "µM"}, {"measurement": "GI50", "setting": "NCI/ADR-RES ovarian", "result": 9.06, "unit": "µM"}, {"measurement": "TGI", "setting": "NCI/ADR-RES ovarian", "result": 22.4, "unit": "µM"}, {"measurement": "GI50", "setting": "OVCAR-3 ovarian", "result": 8.19, "unit": "µM"}, {"measurement": "TGI", "setting": "OVCAR-3 ovarian", "result": 16.1, "unit": "µM"}, {"measurement": "GI50", "setting": "OVCAR-4 ovarian", "result": 8.45, "unit": "µM"}, {"measurement": "TGI", "setting": "OVCAR-4 ovarian", "result": 20.6, "unit": "µM"}, {"measurement": "GI50", "setting": "OVCAR-5 ovarian", "result": 4.41, "unit": "µM"}, {"measurement": "TGI", "setting": "OVCAR-5 ovarian", "result": 21.3, "unit": "µM"}, {"measurement": "GI50", "setting": "OVCAR-8 ovarian", "result": 7.8, "unit": "µM"}, {"measurement": "TGI", "setting": "OVCAR-8 ovarian", "result": 15.7, "unit": "µM"}, {"measurement": "GI50", "setting": "PC-3 prostate", "result": 8.55, "unit": "µM"}, {"measurement": "TGI", "setting": "PC-3 prostate", "result": 21.3, "unit": "µM"}, {"measurement": "GI50", "setting": "RPMI-8226 leukemia", "result": 3.38, "unit": "µM"}, {"measurement": "TGI", "setting": "RPMI-8226 leukemia", "result": 6.5, "unit": "µM"}, {"measurement": "GI50", "setting": "SF-295 CNS", "result": 3.34, "unit": "µM"}, {"measurement": "TGI", "setting": "SF-295 CNS", "result": 5.93, "unit": "µM"}, {"measurement": "GI50", "setting": "SF-539 CNS", "result": 4.33, "unit": "µM"}, {"measurement": "TGI", "setting": "SF-539 CNS", "result": 10.5, "unit": "µM"}, {"measurement": "GI50", "setting": "SK-MEL-2 melanoma", "result": 0.0758, "unit": "µM"}, {"measurement": "TGI", "setting": "SK-MEL-2 melanoma", "result": 0.33, "unit": "µM"}, {"measurement": "GI50", "setting": "SK-MEL-28 melanoma", "result": 0.0274, "unit": "µM"}, {"measurement": "TGI", "setting": "SK-MEL-28 melanoma", "result": 0.388, "unit": "µM"}, {"measurement": "GI50", "setting": "SK-MEL-5 melanoma", "result": 0.0794, "unit": "µM"}, {"measurement": "TGI", "setting": "SK-MEL-5 melanoma", "result": 1.81, "unit": "µM"}, {"measurement": "GI50", "setting": "SK-OV-3 ovarian", "result": 5.57, "unit": "µM"}, {"measurement": "TGI", "setting": "SK-OV-3 ovarian", "result": 12, "unit": "µM"}, {"measurement": "GI50", "setting": "SN12C renal", "result": 8.1, "unit": "µM"}, {"measurement": "TGI", "setting": "SN12C renal", "result": 22.5, "unit": "µM"}, {"measurement": "GI50", "setting": "SNB-19 CNS", "result": 8.27, "unit": "µM"}, {"measurement": "TGI", "setting": "SNB-19 CNS", "result": 23.4, "unit": "µM"}, {"measurement": "GI50", "setting": "SNB-75 CNS", "result": 5.79, "unit": "µM"}, {"measurement": "TGI", "setting": "SNB-75 CNS", "result": 13.3, "unit": "µM"}, {"measurement": "GI50", "setting": "SR leukemia", "result": 1.67, "unit": "µM"}, {"measurement": "TGI", "setting": "SR leukemia", "result": 4.22, "unit": "µM"}, {"measurement": "GI50", "setting": "SW-620 colon", "result": 4.61, "unit": "µM"}, {"measurement": "TGI", "setting": "SW-620 colon", "result": 23.3, "unit": "µM"}, {"measurement": "GI50", "setting": "TK-10 renal", "result": 13.5, "unit": "µM"}, {"measurement": "TGI", "setting": "TK-10 renal", "result": 22.3, "unit": "µM"}, {"measurement": "GI50", "setting": "U251 glioblastoma", "result": 4.35, "unit": "µM"}, {"measurement": "TGI", "setting": "U251 glioblastoma", "result": 9.9, "unit": "µM"}, {"measurement": "GI50", "setting": "UACC-62 melanoma", "result": 0.0345, "unit": "µM"}, {"measurement": "TGI", "setting": "UACC-62 melanoma", "result": 0.912, "unit": "µM"}, {"measurement": "GI50", "setting": "UO-31 renal", "result": 4.74, "unit": "µM"}, {"measurement": "TGI", "setting": "UO-31 renal", "result": 16.6, "unit": "µM"}]}
